One series deals with PRC2 containing wt EZH2 (Homo sapiens (Human), UniProt Q15910). Put plainly: EZH2 biochemical assay (IC50), 3H-SAM incorporation into biotinylated H3 peptide. Particulars: 30 pM PRC2 with wt EZH2, 3-5 h pre-incubation. How it is done: EZH2 biochemical assay (IC50): Compound potencies were assessed through incorporation of ^3H-SAM into a biotinylated H3 peptide. Specifically, 30 pM PRC2 containing wt EZH2 (pentameric complex prepared in-house) was pre-incubated with 450 nM SAM, 450 nM ^3H-SAM, 2 μM H3K27me3 activating peptide (H2N-RKQLATKAAR(Kme3)SAPATGGVKKP-amide) and compounds (as 10 point duplicate dose response titrations in DMSO, final assay 0.8% DMSO (v/v)) for 3-5 h in 50 mM Tris (pH 8.5), 1 mM DTT, 0.07 mM Brij-35, 0.1% BSA, and 0.8% DMSO in a total volume of 12.5 μl. Reaction was initiated with biotinylated H3 substrate peptide (H2N-RKQLATKAAR(Kmel)SAPATGGVKKP-NTPEGBiot) as a 2 μM stock in 12.5 μl of buffer and allowed to react at room temperature for 18-22 h. Quenching was accomplished by addition of 20 μl of STOP solution (50 mM Tris (pH 8.5), 200 mM EDTA, 2 mM SAH). 35 μl of the quenched solution was transferred to streptavidin coated FlashPlates (PerkinElmer), incubated 1-2 h, washed, and read in a TopCount Reader (PerkinElmer). IC50s were calculated in Genedata Screener using non-linear least square four parameter fits, where the four parameters were IC50, Hill slope, pre-transitional baseline (0% INH), and post-transitional baseline (100% INH).

Another series concerns Karpas-422 cell lines. Put plainly: Karpas-422 viability assay (Cell Titer-Glo, Day 8). Particulars: Homo sapiens, KARPAS-422, 192 h, Cell Titer-Glo on Day 8. The series is classed as cell-based. How it is done:
Karpas-422 cell lines were obtained from DSMZ (Braunschweig, Germany) and were grown in RPMI-1640 media. All media contained 10% fetal bovine serum (FBS) and 1% penicillin/streptomycin (Invitrogen). 20K cells per well were plated onto 96 well compound coated plates. Cells were split and seeded at original plating density (based on the DMSO well counts) every 4 days into plates containing fresh EZH2 inhibitors. Relative cell numbers were assessed by Cell Titer-Glo luminescent cell viability assay (Promega) on Day 8. GraphPad Prism 5 was used for curve fitting and GI50 values were reported.
(In ATP-based viability assays light output follows the ATP content of the culture.)

Series [1] can be described thus: Cellular permeability in MDCK assay. Conditions: dog, pH 7.4, MDCK II, with P-gp inhibitor GF120918 10 μM; for efflux ratio at 2.5 h, 2 μM: Papp(BA)/Papp(AB). It counts as in vitro ADME. How it is done: Cell culture: MDCK II cells (obtained from Piet Borst at the Netherlands Cancer Institute) were seeded onto […] (PET) in 96-well BD insert systems at 2.5×10^5 cells/mL until to 4-7 days for confluent cell monolayer formation.
Experimental procedure: Test and reference compounds (nadolol, metoprolol and digoxin) were diluted with transport buffer (HBSS with 10mM Hepes, pH7.4) from stock solution to a concentration of 2 μM (<1% DMSO) and applied to the apical (A) or basolateral (B) side of the cell monolayer. Permeation of the test compounds from A to B direction or B to A direction was determined in duplicate with P-gp inhibitor (GF120918, 10 μM). Digoxin was tested at 10 μM from A to B direction or B to A direction with/without P-gp inhibitor (GF120918, 10 μM) as well, while nadolol and metoprolol were tested at 2 μM in A to B direction without P-gp inhibitor (GF120918, 10 μM) in duplicate. The plate was incubated for 2.5 hours in CO2 incubator at 37±1° C., with 5% CO2 at saturated humidity without shaking. In addition, the efflux ratio of each compound was also determined. Test and reference compounds were quantified by LC/MS/MS analysis based on the peak area ratio of analyte/IS. After transport assay, Lucifer yellow rejection assay are applied to determine the cell monolayer integrity. Buffers are removed from both apical and basolateral chambers, followed by the addition of 75 μL of 100 μM lucifer yellow in transport buffer and 250 μL transport buffer in apical and basolateral chambers, respectively. The plate is incubated for 30 minutes at 37° C. with 5% CO2 and 95% relative humidity without shaking. After 30 minutes incubation, 20 μL of lucifer yellow samples are taken from the apical sides, followed by the addition of 60 μL of Transport Buffer. And then 80 μL of lucifer yellow samples are taken from the basolateral sides. The relative fluorescence unit (RFU) of lucifer yellow is measured at 425/528 nm (excitation/emission) with a Molecular Device M2e plate reader.
Data analysis: The apparent permeability coefficient Papp (cm/s) was calculated using the equation: Papp=(dCr/dt)×Vr/(A×C0) Where dCr/dt is the cumulative concentration of compound in the receiver chamber as a function of time (μM/s); Vr is the solution volume in the receiver chamber (0.075 mL on the apical side, 0.25 mL on the basolateral side); A is the surface area for the transport, i.e. 0.0804 cm2 for the area of the monolayer; C0 is the initial concentration in the donor chamber (μM).
The efflux ratio was calculated using the equation: Efflux Ratio=Papp(BA)/Papp(AB) Percent recovery was calculated using the equation: % Recovery=100×[(Vr×Cr)+(Vd×Cd)]/(Vd×C0) Where Vd is the volume in the donor chambers (0.075 mL on the apical side, 0.25 mL on the basolateral side); Cd and Cr are the final concentrations of transport compound in donor and receiver chambers, respectively.
Percent of lucifer yellow in basolateral well is calculated using the equation:
[formula] where RFUApical and RFUBasolateral are the relative fluorescence unit values of lucifer yellow in the apical and basolateral wells, respectively; VApical and VBasolateral are the volume of apical and basolateral wells (0.075 mL and 0.25 mL), respectively. Percent lucifer yellow should be less than 2.

From patent publication US11274095B2, “Modulators of methyl modifying enzymes, compositions and uses thereof” (Constellation Pharmaceuticals, Inc., priority 2018, dated 2022) come the findings set out here.

What is called pIC50 is −log10 of the IC50, conventionally taken in molar units. Higher therefore signals a low IC50. Usually GI50 stands for the concentration giving 50% growth inhibition. A lower GI50 goes with more potent growth inhibition. By Papp is commonly meant the rate of passage across a membrane or cell layer, normalised by area and donor concentration. Read a low Papp as poor permeation. One may read the efflux ratio as the permeability from basolateral to apical divided by that in the opposite direction, in the common usage.

pIC50: −log10 of the molar value.

PRC2 containing wt EZH2, sequence (Q15910 whole entry): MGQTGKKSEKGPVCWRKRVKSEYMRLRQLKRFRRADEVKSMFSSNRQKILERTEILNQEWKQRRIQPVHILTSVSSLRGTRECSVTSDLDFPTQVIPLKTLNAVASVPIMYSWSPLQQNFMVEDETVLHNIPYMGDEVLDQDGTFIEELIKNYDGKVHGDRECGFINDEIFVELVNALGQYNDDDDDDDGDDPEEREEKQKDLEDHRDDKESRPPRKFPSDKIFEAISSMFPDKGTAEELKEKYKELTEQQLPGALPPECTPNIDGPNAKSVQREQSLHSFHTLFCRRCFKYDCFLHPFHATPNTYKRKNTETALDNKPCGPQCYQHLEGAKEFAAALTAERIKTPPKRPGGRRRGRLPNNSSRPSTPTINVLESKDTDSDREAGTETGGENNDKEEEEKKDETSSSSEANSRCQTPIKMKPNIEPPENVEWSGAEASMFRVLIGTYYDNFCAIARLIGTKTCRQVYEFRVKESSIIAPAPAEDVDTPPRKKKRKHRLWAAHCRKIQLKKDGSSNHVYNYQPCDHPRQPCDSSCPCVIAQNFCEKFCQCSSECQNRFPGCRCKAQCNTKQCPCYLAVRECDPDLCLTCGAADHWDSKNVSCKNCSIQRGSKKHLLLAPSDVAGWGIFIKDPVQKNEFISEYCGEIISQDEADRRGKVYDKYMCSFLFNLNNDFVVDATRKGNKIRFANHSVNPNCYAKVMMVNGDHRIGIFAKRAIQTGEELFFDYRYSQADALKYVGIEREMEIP
PRC2 containing wt EZH2, sequence (O75530 whole entry partner): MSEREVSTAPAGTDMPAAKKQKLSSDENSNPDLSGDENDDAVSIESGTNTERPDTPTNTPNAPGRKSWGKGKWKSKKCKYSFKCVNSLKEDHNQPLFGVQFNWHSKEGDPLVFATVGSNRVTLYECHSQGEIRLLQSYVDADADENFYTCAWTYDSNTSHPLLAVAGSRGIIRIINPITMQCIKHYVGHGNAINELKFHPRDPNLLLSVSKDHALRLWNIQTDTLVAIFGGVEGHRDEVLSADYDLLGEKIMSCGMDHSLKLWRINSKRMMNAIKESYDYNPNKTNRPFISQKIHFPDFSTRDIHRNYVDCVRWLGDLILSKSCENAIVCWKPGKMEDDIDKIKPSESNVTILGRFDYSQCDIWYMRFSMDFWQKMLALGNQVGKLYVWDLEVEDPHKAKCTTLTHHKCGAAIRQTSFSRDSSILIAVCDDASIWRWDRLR
PRC2 containing wt EZH2, sequence (Q15022 whole entry partner): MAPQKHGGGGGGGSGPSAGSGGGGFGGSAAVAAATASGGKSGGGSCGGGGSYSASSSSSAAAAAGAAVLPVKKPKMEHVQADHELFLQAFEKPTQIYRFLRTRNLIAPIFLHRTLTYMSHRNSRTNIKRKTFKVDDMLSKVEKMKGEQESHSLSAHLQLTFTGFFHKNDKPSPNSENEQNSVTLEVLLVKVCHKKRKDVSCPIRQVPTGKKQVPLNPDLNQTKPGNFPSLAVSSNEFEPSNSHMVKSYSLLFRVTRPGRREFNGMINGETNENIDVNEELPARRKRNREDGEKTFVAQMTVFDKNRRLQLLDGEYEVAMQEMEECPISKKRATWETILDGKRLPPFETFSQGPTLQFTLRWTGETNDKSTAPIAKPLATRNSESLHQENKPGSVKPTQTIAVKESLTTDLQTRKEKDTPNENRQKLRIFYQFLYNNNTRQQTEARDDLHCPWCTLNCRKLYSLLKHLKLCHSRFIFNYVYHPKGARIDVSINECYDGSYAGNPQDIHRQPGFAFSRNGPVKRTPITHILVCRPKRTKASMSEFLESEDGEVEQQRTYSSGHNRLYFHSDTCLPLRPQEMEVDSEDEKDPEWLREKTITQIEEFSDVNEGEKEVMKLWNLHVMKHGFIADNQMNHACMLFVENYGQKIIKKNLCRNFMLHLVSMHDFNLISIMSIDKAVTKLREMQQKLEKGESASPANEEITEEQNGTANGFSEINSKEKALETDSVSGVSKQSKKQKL
PRC2 containing wt EZH2, sequence (Q09028 whole entry partner): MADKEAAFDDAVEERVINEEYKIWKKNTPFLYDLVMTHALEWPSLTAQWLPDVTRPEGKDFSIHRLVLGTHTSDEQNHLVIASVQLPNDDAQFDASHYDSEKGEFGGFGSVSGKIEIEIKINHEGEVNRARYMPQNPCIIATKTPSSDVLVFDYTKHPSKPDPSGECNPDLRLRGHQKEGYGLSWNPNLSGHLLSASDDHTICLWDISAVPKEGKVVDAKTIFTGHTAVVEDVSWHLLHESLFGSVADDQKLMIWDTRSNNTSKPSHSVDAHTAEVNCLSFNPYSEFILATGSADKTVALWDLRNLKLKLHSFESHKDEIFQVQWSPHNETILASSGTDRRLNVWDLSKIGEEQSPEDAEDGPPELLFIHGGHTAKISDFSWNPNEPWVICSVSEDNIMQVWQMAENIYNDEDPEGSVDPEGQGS
PRC2 containing wt EZH2, sequence (Q6ZN18 whole entry partner): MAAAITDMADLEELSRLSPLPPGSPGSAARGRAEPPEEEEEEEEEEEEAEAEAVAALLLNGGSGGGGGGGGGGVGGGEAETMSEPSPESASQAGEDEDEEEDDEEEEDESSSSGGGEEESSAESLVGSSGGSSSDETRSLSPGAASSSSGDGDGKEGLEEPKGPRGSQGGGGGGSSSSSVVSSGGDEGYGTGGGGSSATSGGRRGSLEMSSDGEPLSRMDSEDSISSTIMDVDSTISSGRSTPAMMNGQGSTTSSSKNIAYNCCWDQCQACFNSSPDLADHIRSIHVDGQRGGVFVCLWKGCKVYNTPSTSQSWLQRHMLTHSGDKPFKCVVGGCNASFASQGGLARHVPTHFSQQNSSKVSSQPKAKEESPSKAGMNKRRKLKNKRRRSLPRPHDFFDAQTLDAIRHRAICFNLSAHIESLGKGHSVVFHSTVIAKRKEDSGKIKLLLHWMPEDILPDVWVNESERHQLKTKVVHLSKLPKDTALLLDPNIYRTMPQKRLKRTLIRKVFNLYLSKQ

As to `CSc1cc(C)[nH]c(=O)c1CNC(=O)c1cc(Cl)c2c(c1C)OC(C)(C1CCC(N3CC(OC(F)F)C3)CC1)O2` (single isomer, unassigned) [Example 1, 7-chloro-2-(4-(3-(difluoromethoxy)azetidin-1-yl)cyclohexyl)-2,4-dimethyl-N-((6-methyl-4-(methylthio)-2-oxo-1,2-dihydropyridin-3-yl)methyl)benzo[d][1,3]dioxole-5-carboxamide], the pIC50 against PRC2 containing wt EZH2 is 10.04. The molecule further registered a GI50 in the series on Karpas-422 cell lines of 3.9 nM. Moreover, in series [1], the Papp at 2.5 h, 2 μM was 5.6 ×10⁻⁶ cm/s and the efflux ratio at 2.5 h, 2 μM came to 0.79.
The molecule `Cc1cc(Cl)c(CNC(=O)c2cc(Cl)c3c(c2C)OC(C)(C2CCC(N4CC(OC5CC5)C4)CC2)O3)c(=O)[nH]1` (single isomer, unassigned) [Example 8, 7-chloro-N-((4-chloro-6-methyl-2-oxo-1,2-dihydropyridin-3-yl)methyl)-2-(4-(3-cyclopropoxyazetidin-1-yl)cyclohexyl)-2,4-dimethylbenzo[d][1,3]dioxole-5-carboxamide] had a pIC50 at PRC2 containing wt EZH2 of 10.41. In the series on Karpas-422 cell lines, this molecule had a GI50 of 5 nM. Moreover, in series [1], the Papp at 2.5 h, 2 μM was found to be 6.1 ×10⁻⁶ cm/s and the efflux ratio at 2.5 h, 2 μM turned out to be 0.9.
Turning to `CSc1cc(C)[nH]c(=O)c1CNC(=O)c1cc(Cl)c2c(c1C)OC(C)(C1CCC(N3CC(OC4CC4)C3)CC1)O2` (single isomer, unassigned) [Example 9], the pIC50 on PRC2 containing wt EZH2 is 10.27. Further, the GI50 in the series with Karpas-422 cell lines is 3.7 nM. Besides, in series [1], the Papp at 2.5 h, 2 μM was determined as 3.8 ×10⁻⁶ cm/s and the efflux ratio at 2.5 h, 2 μM turned out to be 1.4.
Take `CSc1nc(C)[nH]c(=O)c1CNC(=O)c1cc(Cl)c2c(c1C)OC(C)(C1CCC(N3CC(OC(F)F)C3)CC1)O2` (single isomer, unassigned) [Example 10]: the pIC50 on PRC2 containing wt EZH2 was 9.69. Besides, the GI50 in the series with Karpas-422 cell lines was 20 nM. Further, in series [1], the Papp at 2.5 h, 2 μM stood at 6.5 ×10⁻⁶ cm/s and the efflux ratio at 2.5 h, 2 μM came to 0.69.
At PRC2 containing wt EZH2, `CSc1cc(C)[nH]c(=O)c1CNC(=O)c1cc(Cl)c2c(c1C)OC(C)(C1CCC(N3CC(F)C3)CC1)O2` (single isomer, unassigned) [Example 12] showed a pIC50 of 10.04. The same molecule yielded a 50% growth inhibitory concentration (GI50) in the series on Karpas-422 cell lines of 4.4 nM. Also, in series [1], the Papp at 2.5 h, 2 μM was found to be 6.3 ×10⁻⁶ cm/s and the efflux ratio at 2.5 h, 2 μM was 1.2.
For `Cc1cc(Cl)c(CNC(=O)c2cc(Cl)c3c(c2C)OC(C)(C2CCC(N4CC(OC(F)F)C4)CC2)O3)c(=O)[nH]1` (single isomer, unassigned) [Example 13], in that order: 10.08, 9.7 nM, 8.9 ×10⁻⁶ cm/s and 0.64.
Turning to `COC1CN(C2CCC(C3(C)Oc4c(Cl)cc(C(=O)NCc5c(SC)cc(C)[nH]c5=O)c(C)c4O3)CC2)C1` (single isomer, unassigned) [Example 17, 7-chloro-2-(4-(3-methoxyazetidin-1-yl)cyclohexyl)-2,4-dimethyl-N-((6-methyl-4-(methylthio)-2-oxo-1,2-dihydropyridin-3-yl)methyl)benzo[d][1,3]dioxole-5-carboxamide], the negative logarithm of the IC50 (pIC50) against PRC2 containing wt EZH2 is 10.37. In the series with Karpas-422 cell lines, this molecule displayed a GI50 of 3.5 nM. Moreover, in series [1], the Papp at 2.5 h, 2 μM stood at 2.5 ×10⁻⁶ cm/s and the efflux ratio at 2.5 h, 2 μM worked out at 1.8.
